Reference: the supplement of paper PMC10307832

Assays:
Experiment in all cases: relative viability (nuclei count vs DMSO), 5 days (fraction); higher = more cells survive
[1] = compound: CN(c1ncccc1CNc1nc(Nc2ccc3c(c2)CC(=O)N3)ncc1C(F)(F)F)S(C)(=O)=O + CC1(C)CCC(c2ccc(Cl)cc2)=C(CN2CCN(c3ccc(C(=O)NS(=O)(=O)c4ccc(N[C@H](CCN5CCOCC5)CSc5ccccc5)c(S(=O)(=O)C(F)(F)F)c4)cc3)CC2)C1 [Navitoclax] (partner 0.5 µM)
In short: (§1)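 Lung cancer cell lines, seeded in 1536-well plates, were treated the following day by pin tool with a single drug or with five library-drug doses (not always all listed) in √10 steps on top of a fixed anchor-drug dose. Cells were fixed and nuclei stained in one step after 5 days, and nuclei were counted. Relative viability is the nuclei count for treated wells divided by that for vehicle wells, reported as medians of duplicate plates.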

[2] = compound: CN(c1ncccc1CNc1nc(Nc2ccc3c(c2)CC(=O)N3)ncc1C(F)(F)F)S(C)(=O)=O + C[C@]1(O)C[C@@H](c2nc(-c3ccc4ccc(-c5ccccc5)nc4c3)c3c(N)nccn32)C1 [Linsitinib] (partner 1 µM)
In short: as §1

[3] = compound: CN(c1ncccc1CNc1nc(Nc2ccc3c(c2)CC(=O)N3)ncc1C(F)(F)F)S(C)(=O)=O + Nc1nc2[nH]cc(CCc3ccc(C(=O)N[C@@H](CCC(=O)O)C(=O)O)cc3)c2c(=O)[nH]1 [Pemetrexed] (partner 0.2 µM)
In short: as §1

[4] = compound: CN(c1ncccc1CNc1nc(Nc2ccc3c(c2)CC(=O)N3)ncc1C(F)(F)F)S(C)(=O)=O + O=C(CCCCCCC(=O)Nc1ccccc1)NO [Vorinostat] (partner 1 µM)
In short: as §1

PC-14 showed a relative viability ([1]; first compound 0.01 µM) of 1.02, a relative viability ([1]; first compound 0.03162 µM) of 1.16 and a relative viability ([1]; first compound 0.1 µM) of 1.03. The relative viability ([1]; first compound 0.3162 µM) was 1.01, the relative viability ([1]; first compound 1 µM) was 1.04 and the relative viability ([2]; first compound 0.01 µM) was 0.976. The relative viability ([2]; first compound 0.03162 µM) was 1, the relative viability ([2]; first compound 0.1 µM) was 1.06 and the relative viability ([2]; first compound 0.3162 µM) was 0.961. It also gave a relative viability ([2]; first compound 1 µM) of 1.01, a relative viability ([3]; first compound 0.01 µM) of 0.162 and a relative viability ([3]; first compound 0.03162 µM) of 0.135. It also gave a relative viability ([3]; first compound 0.1 µM) of 0.134, a relative viability ([3]; first compound 0.3162 µM) of 0.128 and a relative viability ([3]; first compound 1 µM) of 0.134. For the same cell line, the relative viability ([4]; first compound 0.01 µM) was 0.75, the relative viability ([4]; first compound 0.03162 µM) was 0.764 and the relative viability ([4]; first compound 0.1 µM) was 0.692. For the same cell line, the relative viability ([4]; first compound 0.3162 µM) was 0.811 and the relative viability ([4]; first compound 1 µM) was 0.653.
RERF-LC-KJ showed a relative viability ([1]; first compound 0.01 µM) of 0.966, a relative viability ([1]; first compound 0.03162 µM) of 1.05 and a relative viability ([1]; first compound 0.1 µM) of 0.862. It also gave a relative viability ([1]; first compound 0.3162 µM) of 0.956, a relative viability ([1]; first compound 1 µM) of 0.693 and a relative viability ([2]; first compound 0.01 µM) of 0.838. The relative viability ([2]; first compound 0.03162 µM) was 0.964, the relative viability ([2]; first compound 0.1 µM) was 0.877 and the relative viability ([2]; first compound 0.3162 µM) was 0.83. It also gave a relative viability ([2]; first compound 1 µM) of 0.933, a relative viability ([3]; first compound 0.01 µM) of 0.428 and a relative viability ([3]; first compound 0.03162 µM) of 0.355. For the same cell line, the relative viability ([3]; first compound 0.1 µM) was 0.496, the relative viability ([3]; first compound 0.3162 µM) was 0.515 and the relative viability ([3]; first compound 1 µM) was 0.575. It also gave a relative viability ([4]; first compound 0.01 µM) of 0.643, a relative viability ([4]; first compound 0.03162 µM) of 0.78 and a relative viability ([4]; first compound 0.1 µM) of 0.692. For the same cell line, the relative viability ([4]; first compound 0.3162 µM) was 0.728 and the relative viability ([4]; first compound 1 µM) was 0.603.
In the case of SK-LU-1, the relative viability ([1]; first compound 0.01 µM) is reported as 0.878, the relative viability ([1]; first compound 0.03162 µM) is reported as 0.841 and the relative viability ([1]; first compound 0.1 µM) is reported as 0.735. For the same cell line, the relative viability ([1]; first compound 0.3162 µM) was 0.766, the relative viability ([1]; first compound 1 µM) was 0.768 and the relative viability ([2]; first compound 0.01 µM) was 0.936. The relative viability ([2]; first compound 0.03162 µM) was 1.12, the relative viability ([2]; first compound 0.1 µM) was 0.966 and the relative viability ([2]; first compound 0.3162 µM) was 1.02. It also gave a relative viability ([2]; first compound 1 µM) of 0.97, a relative viability ([3]; first compound 0.01 µM) of 1.04 and a relative viability ([3]; first compound 0.03162 µM) of 0.903. The relative viability ([3]; first compound 0.1 µM) was 0.954, the relative viability ([3]; first compound 0.3162 µM) was 1 and the relative viability ([3]; first compound 1 µM) was 0.88. For the same cell line, the relative viability ([4]; first compound 0.01 µM) was 0.6, the relative viability ([4]; first compound 0.03162 µM) was 0.693 and the relative viability ([4]; first compound 0.1 µM) was 0.722. The relative viability ([4]; first compound 0.3162 µM) was 0.711 and the relative viability ([4]; first compound 1 µM) was 0.594.
SK-MES-1 was tested, and the relative viability ([1]; first compound 0.01 µM) was 1.3, the relative viability ([1]; first compound 0.03162 µM) was 1.18 and the relative viability ([1]; first compound 0.1 µM) was 1.21. For the same cell line, the relative viability ([1]; first compound 0.3162 µM) was 1.2, the relative viability ([1]; first compound 1 µM) was 0.97 and the relative viability ([2]; first compound 0.01 µM) was 1.04. It also gave a relative viability ([2]; first compound 0.03162 µM) of 1.06, a relative viability ([2]; first compound 0.1 µM) of 1.08 and a relative viability ([2]; first compound 0.3162 µM) of 0.925. It also gave a relative viability ([2]; first compound 1 µM) of 1.01, a relative viability ([3]; first compound 0.01 µM) of 0.968 and a relative viability ([3]; first compound 0.03162 µM) of 0.894. For the same cell line, the relative viability ([3]; first compound 0.1 µM) was 0.882, the relative viability ([3]; first compound 0.3162 µM) was 0.904 and the relative viability ([3]; first compound 1 µM) was 0.762. The relative viability ([4]; first compound 0.01 µM) was 1.1, the relative viability ([4]; first compound 0.03162 µM) was 1.13 and the relative viability ([4]; first compound 0.1 µM) was 1.09. For the same cell line, the relative viability ([4]; first compound 0.3162 µM) was 1.08 and the relative viability ([4]; first compound 1 µM) was 0.951.
Work on SW 1573 yielded a relative viability ([1]; first compound 0.01 µM) of 1.22, a relative viability ([1]; first compound 0.03162 µM) of 0.973 and a relative viability ([1]; first compound 0.1 µM) of 0.988. For the same cell line, the relative viability ([1]; first compound 0.3162 µM) was 0.896, the relative viability ([1]; first compound 1 µM) was 1.07 and the relative viability ([2]; first compound 0.01 µM) was 0.926. It also gave a relative viability ([2]; first compound 0.03162 µM) of 0.635, a relative viability ([2]; first compound 0.1 µM) of 0.754 and a relative viability ([2]; first compound 0.3162 µM) of 0.863. It also gave a relative viability ([2]; first compound 1 µM) of 0.867, a relative viability ([3]; first compound 0.01 µM) of 0.869 and a relative viability ([3]; first compound 0.03162 µM) of 0.928. It also gave a relative viability ([3]; first compound 0.1 µM) of 0.826, a relative viability ([3]; first compound 0.3162 µM) of 0.934 and a relative viability ([3]; first compound 1 µM) of 0.837. It also gave a relative viability ([4]; first compound 0.01 µM) of 0.832, a relative viability ([4]; first compound 0.03162 µM) of 1.11 and a relative viability ([4]; first compound 0.1 µM) of 0.696. For the same cell line, the relative viability ([4]; first compound 0.3162 µM) was 0.992 and the relative viability ([4]; first compound 1 µM) was 0.588.
With UMC-11 the relative viability ([1]; first compound 0.01 µM) was 0.321, the relative viability ([1]; first compound 0.03162 µM) was 0.296 and the relative viability ([1]; first compound 0.1 µM) was 0.313. For the same cell line, the relative viability ([1]; first compound 0.3162 µM) was 0.297, the relative viability ([1]; first compound 1 µM) was 0.235 and the relative viability ([2]; first compound 0.01 µM) was 0.979. The relative viability ([2]; first compound 0.03162 µM) was 1.02, the relative viability ([2]; first compound 0.1 µM) was 1.03 and the relative viability ([2]; first compound 0.3162 µM) was 0.952. The relative viability ([2]; first compound 1 µM) was 0.781, the relative viability ([3]; first compound 0.01 µM) was 0.743 and the relative viability ([3]; first compound 0.03162 µM) was 0.831. For the same cell line, the relative viability ([3]; first compound 0.1 µM) was 0.82, the relative viability ([3]; first compound 0.3162 µM) was 0.799 and the relative viability ([3]; first compound 1 µM) was 0.687. For the same cell line, the relative viability ([4]; first compound 0.01 µM) was 0.417, the relative viability ([4]; first compound 0.03162 µM) was 0.363 and the relative viability ([4]; first compound 0.1 µM) was 0.314. It also gave a relative viability ([4]; first compound 0.3162 µM) of 0.331 and a relative viability ([4]; first compound 1 µM) of 0.229.
